Measurements published in patent US6566550B2, “Substituted aromatic ethers as inhibitors of glycine transport” (Pfizer Inc, priority 2001, dated 2003).

Test system: not given
Conditions: not given

| melting point | SMILES |
| --- | --- |
| 63 to 65 °C | COc1ccc(Oc2cc(OC(CCN(C)CC(=O)O)c3ccc(F)cc3)ccc2C)cc1 (stereo not drawn) |
| 185 to 188 °C | Cc1ccc(OC(CCN(C)CC(=O)O)c2ccc(F)cc2)cc1Oc1ccc2c(c1)OCO2 (stereo not drawn) |
| 60.1 °C | COc1ccc(Oc2ccc(OC(CCN(C)CC(=O)O)c3ccccc3)cc2OC)cc1 (stereo not drawn) |
| 139.5 °C | COc1cc(OC(CCN(C)CC(=O)O)c2ccc(F)cc2)ccc1Oc1ccccc1 (stereo not drawn) |

The remaining lines, values behind:

| SMILES | melting point |
| --- | --- |
| COc1cccc(Oc2cc(OC(CCN(C)CC(=O)O)c3ccc(F)cc3)ccc2C)c1 (stereo not drawn) | 55 to 57 °C |
| CN(CCC(Oc1ccc(Oc2cccc3c2CCCC3)cc1)c1ccc(F)cc1)CC(=O)O (stereo not drawn) | 60 to 61 °C |
| COc1cc(OC(CCN(C)CC(=O)O)c2ccccc2)ccc1Oc1ccccc1 (stereo not drawn) | 77.5 °C |
| Cc1ccc(Oc2ccc(OC(CCN(C)CC(=O)O)c3ccc(F)cc3)c(Cl)c2)cc1 (stereo not drawn) | 129.3 °C |

Test system: NMDA receptor
Conditions: effect blocked by a specific NMDA-site antagonist and a glycine-site antagonist; cited from earlier work

| SMILES | post synaptic current driven by the NMDA receptor |
| --- | --- |
| CN(CCC(Oc1ccc(-c2ccccc2)cc1)c1ccc(F)cc1)CC(=O)O (stereo not drawn) [NFPS] | increased the post synaptic current driven by the NMDA receptor |
